Legend:
A. baumannii DMCI = assay: Mouse burn wound infection model, A. baumannii DMCI, six groups; assay type: in vivo; conditions: C57BL/6 mice, 24 hours after burn, colistin 4 μg/ml, treatment immediately after inoculation
Source text: An established mouse wound model is used for these tests. Female pathogen-free C57BL/6 mice (Harlan, Indianapolis, Ind.), 12 weeks old, weighing ˜20-25 grams are used in all experiments. The skin over the lumbrosacral and back region is clipped using a 35-W model 5-55E electrical clipper (Oyster-Golden A-S, Head no. 80, blade size 40) by using the method described by Ipaktchi et al. with slight modification. Two hundred microliters of 0.9% saline suspension of A. baumannii DMCI (I×10^6 cells/ml), which is a highly colistin resistant clinical strain, is used for wound infection experiments. Viable bacterial numbers are determined 24 hours after burn. The Student t-test is used for statistical analysis.
Experiments are carried out in six groups (I) a control group, which contains neither apyrase nor colistin; (2) potato apyrase group, which contains potato apyrase (I U/ml); (3) colistin group, which contains colistin (4 μg/ml); (4) potato apyrase and colistin group, (5) Apyrase Agent group, (6) Apyrase Agent and colistin group.
The treatment is applied immediately after inoculation. After 24 hours, the mice are given lethal IP injections of pentobarbital (150 mg/kg) and skin samples are collected using a scalpel and scissors.

[1] = system: Burkholderia cepacia GIIIb AU0055; assay: Killing of Burkholderia cepacia GIIIb AU0055 by colistin with Apyrase Agent, CFU count; assay type: cell-based; conditions: colistin at less than 10 μg/ml, with Apyrase Agent 2 U/ml or alone
Experimental: (§1) In this Example (and in subsequent Examples), the colistin is colistin sulfate salt, catalog number C4461 from Sigma-Aldrich (St. Louis, Mo.) and the apyrase is catalog number M0393L from New England BioLabs Inc. (Ipswich, Mass.).
Burkholderia cepacia GIIIb AU0055 is grown in the presence of combinations of 0 and 2 U/ml of Apyrase Agent and approximately 0 to 20 μg/ml of colistin. After incubation, the numbers of viable cells are determined by counting the colony forming units (CFU) on the plate (data provided as CFU/ml). Apyrase Agent improves the efficiency of killing Burkholderia cepacia GIIIb AU0055 by colistin. Apyrase Agent increases the effectiveness of colistin at less than 10 μg/ml such that less than 10 to 100 CFU/ml are detected relative to greater than 10^4 to 10^5 in the presence of colistin alone at the same concentrations.

P. aeruginosa AU0584 = assay: Killing of P. aeruginosa AU0584 by colistin with Apyrase Agent, CFU count; assay type: cell-based; conditions: colistin at less than 10 μg/ml, with Apyrase Agent 2 U/ml or alone
Experimental: as §1
(§2) P. aeruginosa AU0584 is grown in the presence of combinations of 0 and 2 U/ml of Apyrase Agent and approximately 0 to 20 μg/ml of colistin. After incubation, the numbers of viable cells are determined by counting the colony forming units (CFU) on the plate (data provided as CFU/ml). Apyrase Agent improves the efficiency of killing P. aeruginosa AU0584 by colistin. Apyrase Agent increases the effectiveness of colistin at less than 10 μg/ml such that less than 10 to 100 CFU/ml are detected relative to greater than 10^3 to 10^4 in the presence of colistin alone at the same concentrations.

[2] = system: P. aeruginosa strain AU1292; assay: Killing of P. aeruginosa AU1292 by colistin with Apyrase Agent, CFU count; assay type: cell-based; conditions: colistin at less than 20 μg/ml, with Apyrase Agent 2 U/ml or alone
Experimental: as §1
as §2, with “P. aeruginosa strain AU1292 is grown” for “P. aeruginosa AU0584 is grown”, “P. aeruginosa strain AU1292 by colistin.” for “P. aeruginosa AU0584 by colistin.”, “less than 20 μg/ml such” for “less than 10 μg/ml such”, “greater than 10^4 to 10^5” for “greater than 10^3 to 10^4”, “10^4 to 10^5 in the” for “10^3 to 10^4 in the”

[3] = system: Burkholderia dolosa AU0589; assay: Killing of Burkholderia dolosa AU0589 by colistin with Apyrase Agent, CFU count; assay type: cell-based; conditions: colistin at less than 20 μg/ml, with Apyrase Agent 2 U/ml or alone
Experimental: as §1
Burkholderia dolosa AU0589 is grown in the presence of combinations of 0 and 2 U/ml of Apyrase Agent and approximately 0 to 20 μg/ml of colistin. After incubation, the numbers of viable cells are determined by counting the colony forming units (CFU) on the plate (data provided as CFU/ml). Apyrase Agent improves the efficiency of killing Burkholderia dolosa AU0589 by colistin. Apyrase Agent increases the effectiveness of colistin at less than 20 μg/ml such that less than 10 to 100 CFU/ml are detected relative to greater than 10^6 to 10^7 in the presence of colistin alone at the same concentrations.

E. coli strain K12 = assay: Effect of colistin, Apyrase Agent and combinations on E. coli growth curve; assay type: cell-based
Experimental: The effect of colistin, Apyrase agent, and combinations thereof were examined on E. coli growth.
E. coli strain K12 was cultivated to a concentration of about 0.1 OD (A600 nm).
The effect of colistin on E. coli growth. Replicate cultures were cultivated in the presence of colistin (at a concentration of 0.25 μg/ml) and various amounts of additional Apyrase Agent buffer (Tris-biffered saline; 1, 3, 10, or 30 μL).
The effect of Apyrase Agent on E. coli growth. Replicate cultures were cultivated in the presence of Apyrase Agent at various concentrations (i.e. 1, 3, 10, or 30 U/ml).
The effect of a combination of colistin and Apyrase Agent on E. coli growth. Replicate cultures were cultivated in the presence of colistin (at a concentration of […]) combined with Apyrase Agent at various concentrations (namely 1, 3, 10, or 30 U/ml).

[4] = system: Burkholderia ambifaria AU5203; assay: Killing of Burkholderia ambifaria AU5203 by colistin with Apyrase Agent, CFU count; assay type: cell-based; conditions: colistin at less than 20 μg/ml, with Apyrase Agent 2 U/ml or alone
Experimental: as §1
Burkholderia ambifaria AU5203 is grown in the presence of combinations of 0 and 2 U/ml of Apyrase Agent and approximately 0 to 20 μg/ml of colistin. After incubation, the numbers of viable cells are determined by counting the colony forming units (CFU) on the plate (data provided as CFU/ml). Apyrase Agent improves the efficiency of killing Burkholderia ambifaria AU5203 by colistin. Apyrase Agent increases the effectiveness of colistin at less than 20 μg/ml such that less than 10 to 100 CFU/ml are detected relative to greater than 10^5 to 10^6 in the presence of colistin alone at the same concentrations.

[5] = system: A. baumannii strain ATCC 19606; assay: Killing of A. baumannii ATCC 19606 by colistin with Apyrase Agent, CFU count; assay type: cell-based; conditions: about 10^6 CFU/ml inoculum; Apyrase Agent 1 and 2 U/ml with colistin, or colistin alone at the same concentrations (0.25-2 μg/ml)
Experimental: Approximately 10^6 CFU/ml of A. baumannii strain ATCC 19606 is grown on solid medium culture plates in the presence of combinations of 0, 1, and 2 U/ml of Apyrase Agent and 0, 0.25, 0.5, 1, and 2 μg/ml of colistin. After incubation, the numbers of viable cells are determined by counting the colony forming units (CFU) on the plate (data provided as CFU/ml).
as §1

colistin sulfate salt
viable bacteria number recovered from burn sites (A. baumannii DMCI): highest viable bacteria number
numbers of viable cells (CFU) [1]: 10^4 to 10^5 CFU/ml
numbers of viable cells (CFU) (P. aeruginosa AU0584): 10^3 to 10^4 CFU/ml
numbers of viable cells (CFU) [2]: 10^4 to 10^5 CFU/ml
numbers of viable cells (CFU) [3]: 10^6 to 10^7 CFU/ml
effect on E coli growth (E. coli strain K12; colistin 0.25 μg/ml plus Apyrase Agent buffer 1, 3, 10, or 30 μL, 24 hour period, FIG. 1): no effect
effect on E. coli growth (E. coli strain K12; colistin 0.25 mg/ml alone or combined with Apyrase Agent 1, 3, 10, or 30 U/ml, FIG. 3): negligible effect
numbers of viable cells (CFU) [4]: 10^5 to 10^6 CFU/ml
viable cell count [5]: approximately 10^5 CFU/ml
